Reference: patent US20240124503A1, “HETEROAROMATIC PHOSPHONIUM SALTS AND THEIR USE TREATING CANCER” (FLORATEK PHARMA S.A., priority 2021, published 2024)

Assays:
CHP-134 = assay: Cell viability assay, CHP-134; format: cell-based; settings: Homo sapiens; brain carcinoma cell line CHP-134
Method: (§1) Antitumor activity of the compounds and doxorubicin as a positive control was assessed by using the CellTiter-Blue Cell Viability Assay (Promega, #G8082) or CellTiter-Glow® Luminescent Cell Viability assay (Promega #G7572) according to the manufacturer's instructions. The compounds were tested at 5 or 6 concentrations in half-log increments (highest concentration 30 μM or 100 μM) in duplicate or triplicate well conditions.
(§2) Tumor cells were grown at 37° C. in a humidified atmosphere with 5% CO2 in RPMI 1640 or DMEM medium, supplemented with 10% (v/v) fetal calf serum and 50 μg/ml gentamicin for up to 20 passages, and were passaged once or twice weekly. Cells were harvested using TrypLE or PBS buffer containing 1 mM EDTA, and the percentage of viable cells was determined using a CASY Model TI cell counter (OMNI Life Science). Cells were harvested from exponential phase cultures, counted and plated in 96 well flat-bottom microtiter plates at a cell density depending on the cell line's growth rate (4,000-20,000 cells/well depending on the cell line's growth rate, up to 60,000 for hematological cancer cell lines) in RPMI 1640 or DMEM medium supplemented with 10% (v/v) fetal calf serum and 50 μg/ml gentamicin (140 μl/well). […] Viability of cells was quantified by the CellTiter-Blue® cell viability assay (Promega G8081) or CellTiter-Glow® Luminescent Cell Viability assay (Promega #G7572). […]

MDA-MB-231 = assay: Cell viability assay, MDA-MB-231; format: cell-based; settings: Homo sapiens; breast carcinoma cell line MDA-MB-231
Method: as §1, §2

T47D = assay: Cell viability assay, T47D; format: cell-based; settings: Homo sapiens; breast carcinoma cell line T47D
Method: as §1, §2

Mia-Pa-Ca-2 = assay: Cell viability assay, Mia-Pa-Ca-2; format: cell-based; settings: Homo sapiens, MIA PaCa-2; pancreatic carcinoma cell line Mia-Pa-Ca-2
Method: as §1, §2

CDK11 = target: T1, CDK11 (Homo sapiens, UniProt Q9BWU1); assay: KINOMEscan competition binding, CDK11
T1 construct: purchased Eurofins (KINOMEscan); host or cells: E. coli BL21-derived host (T7 phage) or HEK-293
Method: Selected compounds were screened for kinase inhibition using the KINOMEscan™ assay (Eurofins) which is based on a competition binding assay that quantitatively measures the ability of a compound to compete with an immobilized, active-site directed ligand. The assay was performed by combining three components: DNA-tagged kinase; immobilized ligand; and the test compound. The ability of the test compound to compete with the immobilized ligand was measured via quantitative PCR of the DNA tag.
Kinase-tagged T7 phage strains were prepared in an E. coli host derived from the BL21 strain. E. coli were grown to log-phase and infected with T7 phage and incubated with shaking at 32° C. until lysis. The lysates were centrifuged and filtered to remove cell debris. The remaining kinases were produced in HEK-293 cells and subsequently tagged with DNA for qPCR detection. Streptavidin-coated magnetic beads were treated with biotinylated small molecule ligands for 30 minutes at room temperature to generate affinity resins for kinase assays. […] Kds were determined using an 11-point 3-fold compound dilution series with three DMSO control points. […] The kinase concentration in the eluates was measured by qPCR. […]
Binding constants (Kds) were calculated with a standard dose-response curve using the Hill equation: Response=Background+[Signal−Background/1+(Kd^Hill Slope/Dose^Hill Slope)] […]

breast cancer cell = assay: Cell viability, breast cancer cells (panel statement); format: cell-based; settings: text summary of Tables 4A & 4B; read-out: IC50, breast cancer cell growth
Method: as §1, §2

lung carcinoma cell = assay: Cell viability, lung carcinoma cells (panel statement); format: cell-based; settings: summary of Table 13; read-out: IC50, lung carcinoma cell growth
Method: as §1, §2

pancreatic cancer cell = assay: Cell viability, pancreatic cancer cells (panel statement); format: cell-based; settings: text summary of Tables 18A and 18B, read-out: IC50, pancreatic cancer cell growth
Method: as §1, §2

T1 sequence (Q9BWU1 whole entry): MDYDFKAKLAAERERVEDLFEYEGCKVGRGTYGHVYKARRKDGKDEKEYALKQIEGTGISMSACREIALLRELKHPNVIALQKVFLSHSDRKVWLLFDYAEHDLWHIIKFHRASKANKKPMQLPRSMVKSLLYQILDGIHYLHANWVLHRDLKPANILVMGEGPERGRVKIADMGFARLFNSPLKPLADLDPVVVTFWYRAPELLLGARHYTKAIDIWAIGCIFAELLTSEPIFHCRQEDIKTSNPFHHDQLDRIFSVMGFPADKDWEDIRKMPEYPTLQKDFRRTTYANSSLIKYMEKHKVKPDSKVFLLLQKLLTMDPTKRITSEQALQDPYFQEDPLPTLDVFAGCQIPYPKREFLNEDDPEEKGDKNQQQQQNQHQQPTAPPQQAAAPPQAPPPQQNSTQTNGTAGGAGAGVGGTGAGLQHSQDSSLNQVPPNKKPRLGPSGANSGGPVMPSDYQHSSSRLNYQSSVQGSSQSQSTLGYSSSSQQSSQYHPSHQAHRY

COc1c(O)ccc2c(=O)c(O)c(-c3ccc(CCCC[P+](c4ccccc4)(c4ccccc4)c4ccccc4)cc3)oc12 [SND190, (4-(4-(3,7-Dihydroxy-8-methoxy-4-oxo-4H1-chromen-2-yl)phenyl)butyl)triphenylphosphonium bromide]
IC50 (CHP-134): 1.1 µM
IC50 (MDA-MB-231): 3.5 µM
IC50 (T47D): 1.3 µM
IC50 (Mia-Pa-Ca-2): 0.33 µM
Kd (CDK11): 3.6 µM
IC50 (breast cancer cell): < 5 µM
IC50 (lung carcinoma cell): < 20 µM
IC50 (pancreatic cancer cell): < 20 µM
